Assay results from patent US11524940B1, “Inhibitors of cysteine proteases and methods of use thereof” (priority 2020, dated 2022).
Read-outs that look alike come from different tables or passages of the source.

Target: 229E Mpro (Human coronavirus 229E (HCoV-229E), UniProt P0C6X1)
Test: 229E Mpro activity
Format: biochemical
Procedure: Compounds are assayed using standard methods to assess compound activity and IC50. […] The assay buffer contains 20 mM of Tris-HCl (pH 7.3), 100 mM of NaCl, 1 mM of EDTA, 5mM of TCEP and 0.1% BSA.

Sequence of 229E Mpro (P0C6X1 2966-3267 limits assumed): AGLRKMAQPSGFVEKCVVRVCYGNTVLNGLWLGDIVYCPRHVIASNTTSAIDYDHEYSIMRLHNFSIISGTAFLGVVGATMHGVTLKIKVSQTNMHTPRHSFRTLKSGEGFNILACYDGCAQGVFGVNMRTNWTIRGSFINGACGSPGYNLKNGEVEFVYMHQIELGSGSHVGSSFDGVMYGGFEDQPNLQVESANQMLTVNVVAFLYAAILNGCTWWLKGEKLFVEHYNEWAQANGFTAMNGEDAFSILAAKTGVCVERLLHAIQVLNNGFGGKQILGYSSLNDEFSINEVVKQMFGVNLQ

SMILES	EC50 (read-out: 229E Mpro EC50)	EC50 (229E Mpro EC50)
N#C[C@H](C[C@@H]1CCNC1=O)NC(=O)[C@@H]1CCc2ccc(NCC(=O)Oc3ccccc3)c(=O)n21 [Compound 483, phenyl 2-[[(3S)-3-[[(1S)-1-cyano-2-[(3S)-2-oxopyrrolidin-3-yl]ethyl]carbamoyl]-5-oxo-2,3-dihydro-1H-indolizin-6-yl]amino]acetate]	> 30 µM	–
COc1cccc2[nH]c(C(=O)N3CC4(CCOCC4)C[C@H]3C(=O)N[C@H](C#N)C[C@@H]3CCNC3=O)cc12 [Compound 387, N-((S)-1-cyano-2-((S)-2-oxopyrrolidin-3-yl)ethyl)-2-(4-methoxy-1H-indole-2-carbonyl)-8-oxa-2-azaspiro[4.5]decane-3-carboxamide]	> 30 µM	–
COc1cccc2[nH]c(C(=O)N[C@H](CC(C)C)C(=O)N[C@@H](CC3CCNC3=O)C(=O)CO)cc12 (stereo partly drawn) [Compound 740, N-[(1R)-1-[[(1S)-3-hydroxy-2-oxo-1-[[(3S)-2-oxopyrrolidin-3-yl]methyl]propyl]carbamoyl]-3-methyl-butyl]-4-methoxy-1H-indole-2-carboxamide]	–	10 to 30 µM
CCCNC(=O)OC(C#N)[C@H](C[C@@H]1CCNC1=O)NC(=O)[C@H](CC(C)C)NC(=O)c1cc2c(OC)cccc2[nH]1 (stereo partly drawn) [Compound 581]	> 30 µM	–
CC(C)(C)C[C@H](NC(=O)c1cc2c(Cl)cc(Cl)cc2[nH]1)C(=O)N[C@H](C#N)C[C@@H]1CCCNC1=O [Compound 795, 4,6-dichloro-N-((S)-1-(((S)-1-cyano-2-((S)-2-oxopiperidin-3-yl)ethyl)amino)-4,4-dimethyl-1-oxopentan-2-yl)-1H-indole-2-carboxamide]	< 2 µM	–
N#C[C@H](C[C@@H]1CCNC1=O)NC(=O)[C@@H](CC1CC1)n1cccc(NCC(F)(F)F)c1=O (single isomer, unassigned) [467 (Isomer 2)]	> 30 µM	–
COc1cc(Cl)c2[nH]c(C(=O)N[C@@H](CC(C)(C)C)C(=O)N[C@H](C#N)C[C@@H]3CCCNC3=O)cc2c1 [Compound 810, 7-chloro-N-[(1S)-1-[[(1S)-1-cyano-2-[(3S)-2-oxo-3-piperidyl]ethyl]carbamoyl]-3,3-dimethyl-butyl]-5-methoxy-1H-indole-2-carboxamide]	< 2 µM	–
COc1cccc2[nH]c(C(=O)N[C@@H](Cc3cccc(Cl)c3)C(=O)N[C@H](C#N)C[C@@H]3CCNC3=O)cc12 [Compound 153]	10 to 30 µM	–
COc1ccc2[nH]c(C(=O)N[C@@H](CC3CC3)C(=O)N[C@H](C#N)C[C@@H]3CCCNC3=O)cc2c1 [Compound 619, N-[(1S)-2-[[(1S)-1-cyano-2-[(3S)-2-oxo-3-piperidyl]ethyl]amino]-1-(cyclopropylmethyl)-2-oxo-ethyl]-5-methoxy-1H-indole-2-carboxamide]	< 2 µM	–
N#C[C@H](C[C@@H]1CCNC1=O)NC(=O)[C@H](CC1CC1)N1CCc2cc[nH]c2C1=O [Compound 267, (2S)-N-[(1S)-1-cyano-2-[(3S)-2-oxopyrrolidin-3-yl]ethyl]-3-cyclopropyl-2-(7-oxo-4,5-dihydro-1H-pyrrolo[2,3-c]pyridin-6-yl)propanamide]	< 2 µM	–
N#C[C@H](C[C@@H]1CCCNC1=O)NC(=O)[C@H](CC1CC1)NC(=O)c1cc2c(Cl)c(F)ccc2[nH]1 [Compound 822, 4-chloro-N-[(1S)-2-[[(1S)-1-cyano-2-[(3S)-2-oxo-3-piperidyl]ethyl]amino]-1-(cyclopropylmethyl)-2-oxo-ethyl]-5-fluoro-1H-indole-2-carboxamide]	< 2 µM	–
N#C[C@H](C[C@@H]1CCNC1=O)NC(=O)[C@@H]1CCCNN1C(=O)/C=C/c1ccc(Cl)cc1F [Compound 213, (3S)-2-[(E)-3-(4-chloro-2-fluoro-phenyl)prop-2-enoyl]-N-[(1S)-1-cyano-2-[(3S)-2-oxopyrrolidin-3-yl]ethyl]hexahydropyridazine-3-carboxamide]	> 30 µM	–
COc1cccc2[nH]c(C(=O)N[C@@H](CC(C)C)C(=O)NC(C#N)Cc3cc(=O)[nH]c4ccccc34)cc12 (mixture of isomers) [Compound 237, N-[(1S)-1-[[1-cyano-2-(2-oxo-1H-quinolin-4-yl)ethyl]carbamoyl]-3-methyl-butyl]-4-methoxy-1H-indole-2-carboxamide]	> 30 µM	–
COc1cccc2[nH]c(C(=O)N3CC4(CCCCC4)CC3C(=O)N[C@H](C#N)C[C@@H]3CCCNC3=O)cc12 (single isomer, unassigned) [603a (Isomer 1)]	< 2 µM	–
COc1cccc2[nH]c(C(=O)N[C@H](C(=O)N[C@H](C#N)C[C@@H]3CCNC3=O)C3Cc4ccccc4C3)cc12 [Compound 149, N-[(1S)-2-[[(1S)-1-cyano-2-[(3S)-2-oxopyrrolidin-3-yl]ethyl]amino]-1-indan-2-yl-2-oxo-ethyl]-4-methoxy-1H-indole-2-carboxamide]	2 to 10 µM	–
N#C[C@H](C[C@@H]1CCNC1=O)NC(=O)[C@@H]1CS[C@H]2CC[C@H](N)C(=O)N21 [Compound 479, (3R,6S)-6-amino-N-[(1S)-1-cyano-2-[(3S)-2-oxopyrrolidin-3-yl]ethyl]-5-oxo-2,3,6,7,8,8a-hexahydrothiazolo[3,2-a]pyridine-3-carboxamide]	10 to 30 µM	–
COc1cccc2[nH]c(C(=O)N3C[C@H](c4ccccc4)C[C@H]3C(=O)N[C@@H](C[C@@H]3CCNC3=O)C(O)C#N)cc12 (single isomer, unassigned) [345 (Isomer 2)]	< 2 µM	–

SMILES	EC50 (read-out: 229E Mpro EC50)	EC50 (229E Mpro EC50)
COc1cccc2[nH]c(C(=O)N3C[C@H](C(C)(C)C)C[C@H]3C(=O)N[C@H](C#N)C[C@@H]3CCNC3=O)cc12 [Compound 655, (2S,4S)-4-(tert-butyl)-N-((S)-1-cyano-2-((S)-2-oxopyrrolidin-3-yl)ethyl)-1-(4-methoxy-1H-indole-2-carbonyl)pyrrolidine-2-carboxamide]	10 to 30 µM	–
N#C[C@H](C[C@@H]1CCNC1=O)NC(=O)[C@@H]1CS[C@H]2CC[C@H](NC(=O)OCc3ccccc3)C(=O)N21 [Compound 457, Benzyl((3R,6S,8aS)-3-(((S)-1-cyano-2-((S)-2-oxopyrrolidin-3-yl)ethyl)carbamoyl)-5-oxohexahydro-2H-thiazolo[3,2-a]pyridin-6-yl)carbamate]	> 30 µM	–
COc1cccc2[nH]c(C(=O)N[C@H](CN[C@H](C#N)C[C@@H]3CCNC3=O)CC(C)(C)C)cc12 [Compound 659, N-[(1S)-1-[[[(1S)-1-cyano-2-[(3S)-2-oxopyrrolidin-3-yl]ethyl]amino]methyl]-3,3-dimethyl-butyl]-4-methoxy-1H-indole-2-carboxamide]	> 30 µM	–
COc1cccc2[nH]c(C(=O)N[C@@H](CC(C)C)C(=O)N[C@@H](C[C@@H]3CCNC3=O)C(C#N)NC(C)(C)C)cc12 (single isomer, unassigned) [323 (Isomer 1)]	< 2 µM	–
N#C[C@H](C[C@@H]1CCNC1=O)NC(=O)[C@@H](CC1CC1)n1cccc(NCC(F)(F)F)c1=O (single isomer, unassigned) [467 (Isomer 1)]	2 to 10 µM	–
COc1cccc2[nH]c(C(=O)N[C@@H](CC3CC3)C(=O)N[C@H](C#N)C[C@H]3C(=O)Nc4ccccc43)cc12 [Compound 932]	< 2 µM	–
COc1cccc2[nH]c(C(=O)N3CC(C45CC(C4)C5)C[C@H]3C(=O)N[C@H](C#N)C[C@@H]3CCNC3=O)cc12 (single isomer, unassigned) [385 (Isomer 1)]	< 2 µM	–
COc1cccc2[nH]c(C(=O)N[C@@H](CC(C)C)C(=O)N[C@H](C#N)Cc3cn(C)cn3)cc12 [Compound 227, N-[(1S)-1-[[(1S)-1-cyano-2-(1-methylimidazol-4-yl)ethyl]carbamoyl]-3-methyl-butyl]-4-methoxy-1H-indole-2-carboxamide]	> 30 µM	–
N#Cc1ccc2cc(C(=O)N[C@@H](CC3CC3)C(=O)N[C@H](C#N)C[C@@H]3CCCNC3=O)[nH]c2c1 [Compound 862, 6-cyano-N-[(1S)-2-[[(1S)-1-cyano-2-[(3S)-2-oxo-3-piperidyl]ethyl]amino]-1-(cyclopropylmethyl)-2-oxo-ethyl]-1H-indole-2-carboxamide]	< 2 µM	–
COc1cccc2[nH]c(C(=O)N[C@@H](CC(C)C)C(=O)N[C@@H](C[C@@H]3CCNC3=O)C(C#N)N3CCCC3)cc12 (single isomer, unassigned) [331 (Isomer 1)]	< 2 µM	–
COc1cccc2[nH]c(C(=O)N[C@@H](CC(C)C)C(=O)N[C@@H](C[C@@H]3CCNC3=O)C3OC(=O)N(C(C)C)C3=N)cc12 (stereo partly drawn) [Compound 357, N-((2S)-1-(((1S)-1-(4-imino-3-isopropyl-2-oxooxazolidin-5-yl)-2-((S)-2-oxopyrrolidin-3-yl)ethyl)amino)-4-methyl-1-oxopentan-2-yl)-4-methoxy-1H-indole-2-carboxamide]	> 30 µM	–
N#C[C@H](C[C@@H]1CCCNC1=O)NC(=O)[C@H](CC1CC1)NC(=O)c1cc2c(Cl)cc(F)cc2[nH]1 [Compound 824, 4-chloro-N-[(1S)-2-[[(1S)-1-cyano-2-[(3S)-2-oxo-3-piperidyl]ethyl]amino]-1-(cyclopropylmethyl)-2-oxo-ethyl]-6-fluoro-1H-indole-2-carboxamide]	< 2 µM	–
N#C[C@H](C[C@@H]1CCCNC1=O)NC(=O)[C@H](CC1CC1)NC(=O)c1cc2cnccc2[nH]1 [Compound 625, N-((S)-1-(((S)-1-cyano-2-((S)-2-oxopiperidin-3-yl)ethyl)amino)-3-cyclopropyl-1-oxopropan-2-yl)-1H-pyrrolo[3,2-c]pyridine-2-carboxamide]	< 2 µM	–
COc1cccc2[nH]c(C(=O)N[C@@H](CC(C)C)C(=O)NC(C#N)Cc3cc[nH]n3)cc12 (mixture of isomers) [Compound 241, N-[(1S)-1-[[1-cyano-2-(1H-pyrazol-3-yl)ethyl]carbamoyl]-3-methyl-butyl]-4-methoxy-1H-indole-2-carboxamide]	> 30 µM	–
CN1CCCC[C@]12CCN([C@H](CC1CC1)C(=O)N[C@H](C#N)C[C@@H]1CCNC1=O)C2=O [Compound 273A, (2R)-N-[(1S)-1-cyano-2-[(3S)-2-oxopyrrolidin-3-yl]ethyl]-3-cyclopropyl-2-[(5R)-6-methyl-1-oxo-2,6-diazaspiro[4.5]decan-2-yl]propanamide]	> 30 µM	–
N#C[C@H](C[C@@H]1CCCNC1=O)NC(=O)[C@H](CC1CC1)NC(=O)c1cc2c(F)cc(Cl)cc2[nH]1 [Compound 838, 6-chloro-N-[(1S)-2-[[(1S)-1-cyano-2-[(3S)-2-oxo-3-piperidyl]ethyl]amino]-1-(cyclopropylmethyl)-2-oxo-ethyl]-4-fluoro-1H-indole-2-carboxamide]	< 2 µM	–
